# Measured values taken from publication PMC9326216, “Treatment of Cardiovascular Dysfunction with PDE3-Inhibitors in Moderate and Severe Hypothermia—Effects on Cellular Elimination of Cyclic Adenosine Monophosphate and Cyclic Guanosine Monophosphate” (Frontiers in Physiology, 2022).
# Key:
# [1] = tested on: erythrocytes; test: Intracellular access of the drugs in erythrocytes (LC-MS); type: in vitro ADME, human; conditions: 30 min incubation, milrinone 10 µM, amrinone 100 µM, levosimendan 1 µM
# Description: Fresh (<24 h) EDTA blood from healthy donors (n = 18) was obtained and washed with Krebs-Ringer-Phosphate-Buffer containing glucose (KRPB/G, pH 7.4) and centrifuged (10 min, 1,000 g) three consecutive times. Plasma and buffy coat were removed. KRPB/G was added to the cell solution to bring it to the ratio 1:2.5. Hematocrit (Hct) was measured and adjusted with additional buffer to reach 0.44, in order to give the final Hct of 0.40 in the incubation solution. […] The reaction was stopped by placing the test tubes on ice and adding 4 ml of ice cold KRFB/G. The samples were subsequently centrifugated (5 min, 600 g), then washed with KRFB/G once more and centrifugation was repeated twice. 50 µl of the remaining red blood cell suspension was transferred to Eppendorf tubes. 50 µl 500 nM IS-Milrinone-d3 was added as an internal standard (TLC Pharmaceutical Standards Ltd.). 200 µl ZnSO4 was added to each test sample, to induce lysis of the cells, and mixed in a vortex mixer. 30 µl of the samples were used for measurement of protein concentration, the rest was mixed with 500 µl acetonitrile and centrifugated (2 min, 13400 g). Finally, 100 µl of the solution was collected for analysis using mass spectrometry (MS).
# Liquid chromatography tandem mass spectrometry (LC-MS) was used to assess concentrations of the inhibitors for experiments performed to determine intracellular access of these drugs, as well as to quantify levels of cAMP/AMP and cGMP/GMP for the PDE3-and PDE5-inhibition plots. Internal standards were used, as described previously. There was a linearity from 0.2 nM to at least 2000 nM (r^2 > 0.998) for cAMP, AMP, and cGMP. For GMP, linearity was present from 2 nM to at least 2000 nM (r^2 > 0.998). Concerning PDE3-inhibitors, the linearity was found at 10 nM to at least 5,000 nM (r^2 > 0.99). Lower limit of quantification (LLOQ) was 0.2 for cAMP, cGMP, and AMP, 2 nM for GMP and 10 nM for PDE3-inhibitors (2 µl injection volume).
# Intracellular concentrations of drugs were adjusted for protein concentrations in each sample. The total incubation concentrations were also adjusted for protein concentrations to evaluate the degree of access in percentage. Statistical analysis was performed using one-way ANOVA with Holm-Sidak multiple comparisons post hoc test at each temperature. ANOVA on ranks with Dunn post hoc test was used when the results were not normally distributed. The results are presented as means ± standard error of mean (SEM). p-values < 0.05 were considered significant results. Degrees of freedom (dF) is given as between group values. SigmaPlot 14.0 (Systat Software, San Jose, CA, United States) was used for all analysis, as well as creating the graphs.
# [2] = target: T1, PDE5 (Homo sapiens, UniProt O76074); test: Phosphodiesterase assay: inhibition of cGMP hydrolysis by recombinant PDE5; type: biochemical; conditions: for IC50: 5 µM cGMP, 30 min; for Ki: Cheng-Prusoff
# T1 construct: purchased Sigma-Aldrich, St. Louis, United States
# Description: The study drugs were tested upon their ability to hinder cAMP and cGMP hydrolysis by inhibiting PDE3 and PDE5 respectively. Either 5 µM cAMP or cGMP (Sigma-Aldrich, St. Louis, MO, United States) were used as substrates for the enzymes. The reaction was initiated by adding PDE to the assay solution in designated Eppendorf tubes, containing fresh incubation buffer (10 mM Tris, 8.2 mM Propionic acid, 3 mM Magnesium acetate, 1.5 mM EGTA and 0.5 mg/ml BSA, 0.2 mM DTT) selected substrate (cAMP or cGMP) and inhibitor. The reaction was initiated by adding 0.016 units/µl incubate of PDE3 (Abcam, Cambridge, United Kingdom), or 0.022 units/µl incubate of PDE5 (Sigma-Aldrich, St. Louis, United States). Control samples were free of drug and were either with or without PDE. The incubation time was 30 min in the selected temperature. Reaction was stopped by adding 99.9% methanol to the solutions. Internal standards of cGMP-13C5, cAMP-13C5, AMP-13C5 (Toronto Research Chemicals Inc., Ontario, Canada) and GMP-15N5 (Sigma-Aldrich, St. Louis, MO, United States) were added to each sample, before MS analysis.
# Liquid chromatography tandem mass spectrometry (LC-MS) was used to assess concentrations of the inhibitors for experiments performed to determine intracellular access of these drugs, as well as to quantify levels of cAMP/AMP and cGMP/GMP for the PDE3-and PDE5-inhibition plots. Internal standards were used, as described previously.
# IC50 and Ki values were calculated for each of the drugs, both for their ability to inhibit cAMP- and cGMP- efflux, as well as PDE3 and PDE5 activity. IC50 values were derived according to [Chou (1976)], and Ki values according to [Cheng and Prusoff (1973)]. Inhibition curves were created accordingly, both with and without adjustment for normothermic control.
SMILES,"Intracellular access, % of drug concentration per gram protein in the incubation solution ([1]; 28°C) [%]","Intracellular access, % of drug concentration per gram protein in the incubation solution ([1]; 34°C) [%]",IC50 ([2]; 20°C) [µM],Ki ([2]; 20°C) [µM],IC50 ([2]; 24°C) [µM],Ki ([2]; 24°C) [µM],IC50 ([2]; 28°C) [µM],Ki ([2]; 28°C) [µM],IC50 ([2]; 32°C) [µM],Ki ([2]; 32°C) [µM],IC50 ([2]; 34°C) [µM],Ki ([2]; 34°C) [µM],IC50 ([2]; 37°C) [µM],Ki ([2]; 37°C) [µM]
C[C@@H]1CC(=O)NN=C1c1ccc(NN=C(C#N)C#N)cc1 [Levosimendan],18.29 ± 3.122,25.06 ± 5.289,157 ± 27.5,39.9 ± 6.97,148 ± 26.1,37.6 ± 6.63,183 ± 23,46.4 ± 5.85,162 ± 22.5,41.2 ± 5.71,150 ± 13.5,38 ± 3.41,155 ± 4.74,39.2 ± 1.2
Nc1cc(-c2ccncc2)c[nH]c1=O [Amrinone],1.66 ± 0.216,2.303 ± 0.284,105 ± 8.04,26.7 ± 2.04,99.1 ± 4.2,25.1 ± 1.07,95 ± 7.29,24.1 ± 1.85,84.5 ± 5.94,21.5 ± 1.51,91.9 ± 3.65,23.3 ± 0.93,110 ± 12.8,27.8 ± 3.25
